Laboratory results reported in the supplement of paper PMC10307832.

Experiments:
Test in all cases: relative viability (nuclei count vs DMSO), 5 days (fraction); higher = more cells survive
Vorinostat + Pictilisib = compound: O=C(CCCCCCC(=O)Nc1ccccc1)NO [Vorinostat] + CS(=O)(=O)N1CCN(Cc2cc3nc(-c4cccc5[nH]ncc45)nc(N4CCOCC4)c3s2)CC1 [Pictilisib] (partner 1 µM)
How it was run: (§1)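 One day after seeding in 1536-well plates, lung cancer cell lines were dosed by pin tool. Dosing was either single-drug or a fixed anchor-drug dose plus five library-drug doses (not always all listed) in √10 steps. After 5 days, nuclei were stained in one fix-and-stain step and counted on 4× images, and relative viability is the nuclei count of treated wells over that of vehicle wells, given as the median of duplicate plates.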

Vorinostat + Tozasertib = compound: O=C(CCCCCCC(=O)Nc1ccccc1)NO [Vorinostat] + Cc1cc(Nc2cc(N3CCN(C)CC3)nc(Sc3ccc(NC(=O)C4CC4)cc3)n2)n[nH]1 [Tozasertib] (partner 0.1 µM)
How it was run: as §1

Vorinostat + Foretinib = compound: O=C(CCCCCCC(=O)Nc1ccccc1)NO [Vorinostat] + COc1cc2c(Oc3ccc(NC(=O)C4(C(=O)Nc5ccc(F)cc5)CC4)cc3F)ccnc2cc1OCCCN1CCOCC1 [Foretinib] (partner 0.25 µM)
How it was run: as §1

Vorinostat + AZD7762 = compound: O=C(CCCCCCC(=O)Nc1ccccc1)NO [Vorinostat] + NC(=O)Nc1cc(-c2cccc(F)c2)sc1C(=O)N[C@H]1CCCNC1 [AZD7762] (partner 0.2 µM)
How it was run: as §1

Vorinostat + Linsitinib = compound: O=C(CCCCCCC(=O)Nc1ccccc1)NO [Vorinostat] + C[C@]1(O)C[C@@H](c2nc(-c3ccc4ccc(-c5ccccc5)nc4c3)c3c(N)nccn32)C1 [Linsitinib] (partner 1 µM)
How it was run: as §1

| Cell Line | relative viability (Vorinostat + Pictilisib; first compound 0.253 µM) | relative viability (Vorinostat + Pictilisib; first compound 0.8 µM) | relative viability (Vorinostat + Pictilisib; first compound 2.53 µM) | relative viability (Vorinostat + Pictilisib; first compound 8 µM) | relative viability (Vorinostat + Tozasertib; first compound 0.253 µM) | relative viability (Vorinostat + Tozasertib; first compound 0.8 µM) | relative viability (Vorinostat + Tozasertib; first compound 2.53 µM) | relative viability (Vorinostat + Tozasertib; first compound 8 µM) | relative viability (Vorinostat + Foretinib; first compound 0.253 µM) | relative viability (Vorinostat + Foretinib; first compound 0.8 µM) | relative viability (Vorinostat + Foretinib; first compound 2.53 µM) | relative viability (Vorinostat + Foretinib; first compound 8 µM) | relative viability (Vorinostat + AZD7762; first compound 0.253 µM) | relative viability (Vorinostat + AZD7762; first compound 0.8 µM) | relative viability (Vorinostat + AZD7762; first compound 2.53 µM) | relative viability (Vorinostat + AZD7762; first compound 8 µM) | relative viability (Vorinostat + Linsitinib; first compound 0.253 µM) | relative viability (Vorinostat + Linsitinib; first compound 0.8 µM) | relative viability (Vorinostat + Linsitinib; first compound 2.53 µM) | relative viability (Vorinostat + Linsitinib; first compound 8 µM) |
| --- | --- | --- | --- | --- | --- | --- | --- | --- | --- | --- | --- | --- | --- | --- | --- | --- | --- | --- | --- | --- |
| NCI-H1944 | 0.338 | 0.308 | 0.27 | 0.18 | 0.239 | 0.221 | 0.132 | 0.0956 | 0.832 | 0.594 | 0.321 | 0.142 | 0.328 | 0.27 | 0.19 | 0.104 | 1.21 | 0.948 | 0.697 | 0.207 |
| EMC-BAC-2 | 0.596 | 0.531 | 0.372 | 0.129 | 0.199 | 0.202 | 0.149 | 0.144 | 1.02 | 0.977 | 0.4 | 0.172 | 1.02 | 0.653 | 0.447 | 0.174 | 0.977 | 0.866 | 0.47 | 0.134 |
| NCI-H2085 | 0.53 | 0.462 | 0.378 | 0.303 | 0.771 | 0.651 | 0.376 | 0.311 | 0.968 | 0.665 | 0.468 | 0.228 | 0.962 | 0.898 | 0.518 | 0.207 | 0.818 | 0.804 | 0.621 | 0.243 |
| NCI-H1651 | 0.659 | 0.433 | 0.0763 | 0.0536 | 0.609 | 0.326 | 0.153 | 0.0653 | 0.879 | 0.791 | 0.228 | 0.0797 | 0.308 | 0.45 | 0.22 | 0.0691 | 1.01 | 0.762 | 0.0741 | 0.0616 |
| NCI-H2087 | 1.32 | 0.634 | 0.275 | 0.133 | 0.262 | 0.14 | 0.0617 | 0.0825 | 1.34 | 0.615 | 0.153 | 0.0924 | 1.35 | 1.04 | 0.498 | 0.102 | 0.974 | 1.03 | 0.474 | 0.159 |
| LXF-289 | 0.913 | 0.704 | 0.272 | 0.088 | 0.209 | 0.165 | 0.0836 | 0.0447 | 0.981 | 0.97 | 0.3 | 0.0942 | 1.14 | 1.09 | 0.344 | 0.0727 | 1.03 | 0.994 | 0.391 | 0.108 |
| NCI-H3122 | 0.667 | 0.758 | 0.284 | 0.177 | 0.387 | 0.294 | 0.0525 | 0.0914 | 1.04 | 1.05 | 0.242 | 0.0563 | 1.17 | 1.06 | 0.246 | 0.0864 | 1.12 | 1.05 | 0.605 | 0.142 |
| NCI-H1793 | 0.479 | 0.355 | 0.286 | 0.174 | 0.316 | 0.256 | 0.179 | 0.125 | 1.03 | 0.679 | 0.257 | 0.204 | 0.188 | 0.492 | 0.204 | 0.131 | 0.781 | 0.95 | 0.703 | 0.215 |
| NCI-H1734 | 0.512 | 0.49 | 0.299 | 0.13 | 0.258 | 0.229 | 0.162 | 0.133 | 0.944 | 0.917 | 0.526 | 0.176 | 0.306 | 0.292 | 0.162 | 0.0959 | 0.982 | 0.856 | 0.658 | 0.133 |
| NCI-H838 | 0.798 | 0.675 | 0.349 | 0.142 | 0.263 | 0.227 | 0.172 | 0.111 | 1.33 | 1.05 | 0.51 | 0.173 | 0.998 | 1 | 0.628 | 0.609 | 1.19 | 1.08 | 0.459 | 0.172 |
| NCI-H358 | 0.372 | 0.468 | 0.17 | 0.172 | 0.128 | 0.11 | 0.0949 | 0.0726 | 1.01 | 0.649 | 0.154 | 0.0783 | 0.466 | 0.312 | 0.14 | 0.159 | 0.969 | 0.83 | 0.219 | 0.156 |
| LOU-NH91 | 0.556 | 0.472 | 0.417 | 0.32 | 0.615 | 0.481 | 0.36 | 0.295 | 1.08 | 0.917 | 0.758 | 0.347 | 0.757 | 0.739 | 0.548 | 0.414 | 1.1 | 0.901 | 0.547 | 0.338 |
| NCI-H650 | 0.902 | 0.491 | 0.183 | 0.16 | 0.686 | 0.421 | 0.154 | 0.136 | 0.998 | 0.907 | 0.213 | 0.151 | 0.606 | 0.737 | 0.235 | 0.165 | 1.13 | 0.52 | 0.205 | 0.152 |
| EKVX | 0.475 | 0.441 | 0.21 | 0.103 | 0.39 | 0.275 | 0.194 | 0.11 | 0.859 | 0.931 | 0.714 | 0.138 | 0.838 | 0.489 | 0.199 | 0.136 | 1.14 | 1.04 | 0.515 | 0.141 |
| NCI-H2405 | 0.478 | 0.542 | 0.153 | 0.0468 | 0.718 | 0.692 | 0.339 | 0.117 | 1.16 | 1.15 | 0.505 | 0.108 | 0.904 | 0.742 | 0.262 | 0.11 | 1.13 | 1.09 | 0.245 | 0.0821 |
| NCI-H1755 | 0.47 | 0.368 | 0.173 | 0.138 | 0.613 | 0.51 | 0.319 | 0.179 | 0.997 | 0.971 | 0.525 | 0.202 | 0.478 | 0.402 | 0.276 | 0.163 | 1.07 | 1.05 | 0.512 | 0.188 |
